Our source for the EC50 and Activity values is ChEMBL document CHEMBL1157081, “HPLC-based activity profiling for GABA(A) receptor modulators: a new dihydroisocoumarin from Haloxylon scoparium” (J Nat Prod, 2010).

pEC50: −log10 of the molar value. Activity calls are given as the source filed them. The calls are words filed in the database; no cut-off is given here.

A short description of assay [1]: Allosteric modulation at GABA A receptor alpha-1-beta-2-gamma-2S expressed in Xenopus oocytes assessed as enhancement of GABA-induced chloride current. As to conditions: Oocyte. Type of assay: cell-based.
Assay [2] deals with Oocyte. In words: Allosteric modulation at GABA A receptor alpha-1-beta-2-gamma-2S expressed in Xenopus oocytes assessed as enhancement of GABA-induced chloride current at 500 uM. Type of assay: cell-based.
Assay [3] deals with Oocyte. In words: Agonist activity at GABA A receptor alpha-1-beta-2-gamma-2S expressed in Xenopus oocytes assessed as enhancement of chloride current at 500 uM. The format is functional, cell-based.
Assay [4] has as its system Oocyte. In words: Allosteric modulation at GABA A receptor alpha-1-beta-2-gamma-2S expressed in Xenopus oocytes assessed as enhancement of GABA-induced chloride current at >=3 uM. The format is cell-based.

In the case of `COc1c2c(cc3c1C(=O)O[C@H](c1ccccc1)C3)OCO2`, the negative logarithm of the EC50 (pEC50) in assay [1] was 3.85. Besides, in assay [2], the Activity was found to be 145%. In addition, the result in assay [3] was inactive. In addition, the outcome in assay [4] was Active.
Regarding `CC(C)=CCC[C@](C)(O[C@@H]1O[C@H](CO[C@@H]2O[C@@H](CO)[C@H](O)[C@H]2O)[C@@H](O)[C@H](O)[C@H]1O)[C@H]1CC[C@]2(C)[C@@H]1[C@H](O)C[C@@H]1[C@@]3(C)CC[C@H](O[C@@H]4O[C@H](CO)[C@@H](O)[C@H](O)[C@H]4O[C@@H]4O[C@H](CO)[C@@H](O)[C@H](O)[C@H]4O)C(C)(C)[C@@H]3CC[C@]12C` [GINSENOSIDE RC], the negative-log EC50 (pEC50) in assay [1] was 4.27.
As for `CC1(C)C2CCC1(C)C(O)C2` (racemic) [BORNEOL], the pEC50 in assay [1] was 3.63.
